Results as given in patent US9381193B2, “Contraceptive methods and compositions” (WASHINGTON UNIVERSITY, priority 2011, dated 2016).

Legend:
ICR female mice = experiment: Intrauterine DHEA or 6-AN pellet and pregnancy outcome; type: in vivo, mouse
Protocol: ICR female mice had either placebo (n=26), DHEA (1.5 mg/60 days)(n=20), or 6-AN pellets (150, 15, 1.5 mcg/60 days)(n=24) placed into the uterine horn after index delivery. Females were then mated and litter size was measured over the following 120 days post pellet. Mice were housed according to the Institutional Animal Care and use Committee and NIH guidelines. Day to first litter, number of litters, number of pups, average pups/litter were recorded. Serum DHEA levels were quantified (Alpco, Salem, N.H.). All pellets (placebo, DHEA, 6-AN) were custom-formulated (Innovative Research, Inc).

murine ESCs = experiment: In vitro decidualization of primary murine ESCs (Prp mRNA); type: cell-based, mouse; conditions: 3 days in vitro culture
Excerpt: In order to confirm that this is not a side effect of ESC immortalization with telomerase overexpression in this human cell line, the effect of DHEA on decidualization of primary ESC cultures from mouse and human uteri was also investigated. Murine ESCs were isolated from the gravid uterus at 4 days post coitus and cultured in vitro for 3 days to induce decidualization as described in the Methods. […] The human primary ESCs were isolated from uteri following hysterectomy for benign disease as outlined in the Methods and cultured in decidualization media for 9 days.
For in vitro decidualization of ESCs, female mice were sacrificed at 4dpc. Pregnancy was confirmed by flushing dissected uterine horns and ostia with HBSS and observing for presence of blastocysts. Uteri confirmed for pregnancy were cut into 1 mm^3 pieces and incubated in Dulbecco's modified Eagle's Medium:F12 medium (DMEM:F12) without phenol red supplemented with 2 g/liter Collagenase Type I (Gibco) for 60-90 min at 37° C. Tissues were vortexed every 15 min during incubation. Following incubation, the solution was passed through a 40 μm sieve (BD Falcon) and centrifuged at 1100 rpm for 5 min. […]

FVB/NJ mice [1] = experiment: Ovarian histology and follicle counts in DHEA-fed mice; type: in vivo, mouse; conditions: 0.6% DHEA diet
Excerpt: (§1) Female FVB/NJ mice were obtained from Jackson Laboratories (Bar Harbor, Me., USA). Regular rodent chow was supplemented with DHEA at 0.01%, 0.1% and 0.6% w/w. Three-week-old mice had access to food and water ad libitum. Mice were fed control or DHEA-supplemented chow for two weeks. The Animal Studies Committee at Washington University School of Medicine reviewed and approved all animal experiments. Animals were maintained according to the Guide for the Care and Use of Laboratory Animals provided by the Institute for Laboratory Animal Research.
For histological evaluation, one ovary from five mice in each group was fixed in Bouin's solution, transferred to 70% ethanol then embedded in paraffin and serial sectioned at 10 microns. Every tenth section was kept and stained with hematoxylin and eosin. Follicles with visible nuclei were classified as primordial, primary, secondary or antral. Corpora lutea were also counted. Follicle counts from each classification were summed for each mouse.

embryos = experiment: Transfer of blastocysts cultured in DHEA to pseudopregnant females; type: in vivo, mouse
Protocol: Mice were superovulated and mated with males of known fertility. Forty-five hours after injection with hCG, the oviducts were removed. Two-cell embryos were collected by flushing the oviducts with human tubal fluid media (HTF) with 0.25% BSA. Embryos were cultured in HTF with BSA and either DMSO, 10 μM DHEA or 100 μM DHEA for 72 hours. In vitro cultured blastocysts were transferred to 2.5 days postcoitus (dpc) pseudopregnant ICR females. Resulting embryos and placentas were collected at 14.5 dpc and fixed with Bouin's solution, embedded in paraffin and sectioned.

FVB/NJ mice [2] = experiment: Pregnancy rates / litters of DHEA-fed mice; type: in vivo, mouse
Protocol: To determine the reversibility of DHEA, mice were fed the two higher DHEA diets that prevented normal estrous cycles for two weeks followed by regular rodent chow for two weeks. Estrous cycles and pregnancy rates were recorded.
as §1
Control and DHEA-fed mice were mated with males of known fertility until three litters were delivered or up to 12 weeks.

Question: Which “Mean serum levels of DHEA” value (ICR female mice; DHEA pellet group, controls 0.265) does the source give for C[C@]12CC[C@H](O)CC1=CC[C@@H]1[C@@H]2CC[C@]2(C)C(=O)CC[C@@H]12 [DHEA, dehydroepiandrosterone] here?
Answer: 0.512 ng/mL

Question: And the Average pups/litter (ICR female mice; DHEA pellet, after 60 days, control 12.3)?
Answer: 10.3 pups/litter

Question: And the “Reduction of average pups/litter size” value (ICR female mice; DHEA pellet, first litter after placement of the pellet)?
Answer: 55%

Question: And the Average pups/litter (ICR female mice; DHEA pellet, first litter, control 13.0)?
Answer: 5.9 pups/litter

Question: What about the “Average time to first litter” value (ICR female mice; intrauterine pellet: DHEA 1.5 mg/60 days, 6-AN 150, 15, 1.5 mcg/60 days, controls 27 days) of the same compound?
Answer: 34 days

Question: And the “Prp mRNA expression” value (murine ESCs)?
Answer: decreased upon addition of DHEA in a concentration-dependent manner

Question: And the Ovarian morphology (FVB/NJ mice [1])?
Answer: large cystic structures

Question: And the “Anomalies in the fetuses or abnormal placental histology” value (embryos)?
Answer: did not lead to increased anomalies

Question: And the “Fetus size at 14.5 dpc” value (embryos)?
Answer: significantly smaller fetuses

Question: What about the “Placenta size at 14.5 dpc” value (embryos; p=0.054) of the same compound?
Answer: smaller placentas

Question: And the “Litters while on diet” value (FVB/NJ mice [2]; 0.01% DHEA diet)?
Answer: the litters were smaller than the controls

Question: What about the “Litters while on diet” value (FVB/NJ mice [2]; 0.1% and 0.6% DHEA diet) of the same compound?
Answer: did not deliver any pups
